Experiment [1] deals with p70S6K (Homo sapiens, UniProt P23443). The experiment can be described thus: Kinase selectivity IC50, p70S6K. Type of experiment: biochemical. The method, then: (§1) To investigate the representative kinase selectivity of these compounds at physiological ATP levels, compound 13 was screened over a panel of 121 kinases in the presence of 1 mM ATP with preincubation method. […] IC50 values of hit kinases were determined to confirm the selectivity of compound 13.

Experiment [2] relates to HEL299. Description: Anti-proliferation activity in HEL299. Type of experiment: cell-based. Conditions: HEL 299; HEL299, derived from a human embryo lung tissue.
Experiment [3] concerns the target T1, human Cdc7/human ASK complex protein (Homo sapiens, UniProt O00311).
T1 construct: purchased Carna Biosciences, Inc
Description: Cdc7/ASK enzymatic assay. It counts as biochemical. The method, then: Measurement of Cdc7 kinase activity was carried out using MSA assay kit (QuickScout™ Screening Assist Kit, Carna Biosciences, Inc.). Assay buffer (20 mM HEPES, 0.01% Triton X-100™, 2 mM dithiothreitol, pH 7.5) was used to prepare a substrate mixture solution comprising 4 μM of kinase-reaction substrate (FITC-labeled MCM2 peptide), 40 mM MgCl2, and 4 times concentrations of final targeted ATP (5, 100, and 1,000 μM). The enzyme supplied in the kit (human Cdc7/human ASK complex protein) was diluted into the assay buffer to prepare a 7 nM solution (enzyme solution). The compound stock solution was prepared by diluting a 10 mM DMSO solution into the assay buffer (final 4% DMSO). The kinase reaction was performed by mixing of 5 μL of the compound solution, 5 μL of the substrate mixture solution, and 10 μL of the enzyme solution in a 384-well plate. For the pre-incubation assay, the compound solution and the enzyme solution were pre-mixed and incubated at ambient temperature for 30 min before adding into the substrate mixture solution to start enzymatic reaction. After the reaction at 25° C. for 5 hours, 60 μL of the termination buffer (supplied in the kit) was added to stop the reaction. The phosphorylation of substrate was measured using a LabChip EZ Reader II system (Caliper Life Sciences). The percent inhibition (%) by a tested compound was calculated according to the following formula:
Percent inhibition (%)=(1−(C−A)/(B−A))×100
A represents P/(P+S) for a blank well, B represents P/(P+S) for a solvent well, and C represents P/(P+S) for a compound-added well. S: the peak heights of the separated substrate, P: phosphorylated substrate.
The IC50 value of tested compound was calculated by regression analysis of the percent inhibition values versus the (logarithmic) concentration of the tested compound.

In experiment [4] the test system is panel of 121 kinases. The experiment can be described thus: Kinase selectivity screen over a panel of 121 kinases. It counts as biochemical. Conditions: 1 mM ATP with preincubation. The method, then:
as §1

Experiment [5] deals with GSK3α (Homo sapiens, UniProt P49840). Description: Kinase selectivity IC50, GSK3α. Type of experiment: biochemical. The method, then: as §1
In experiment [6] the test system is Colo-205 cells. The experiment can be described thus: Cell cycle analysis (flow cytometry). Conditions: 48 hours, 0.33 and 1 μM. It counts as cell-based, human. The method, then: FIGS. 3A and 3B illustrate the effects of Cdc7 inhibition by compound 13 in Colo-205 cells. a) Western blot analysis of extracts prepared from Colo-205 cells at 48 h after treatment with DMSO control (0 μM) or compound 13 at indicated concentrations. b) […] analysis of Colo-205 cells treated for 48 h with DMSO control (0 μM) and the indicated concentration of compound 13. DNA content was measured by FACS after propidium iodide staining.
Colo-205 cells (5×10^5) were seeded in six-well plates and treated with different concentrations of a test compound. After 48 h, the cells were harvested and suspended in 0.5 mL of D-PBS. The cells were then fixed by adding 1 mL of ice-cold ethanol, and the samples were kept at −30° C. The cells were resuspended in 200 μL PI solution (20 μg/mL propydium iodide and 100 μg/mL RNaseA of D-PBS), and incubated in the dark for 1 h at room temperature. Cell cycle analyses were performed using FACS Calibur flow cytometer (BD Biosciences).
In general terms: Flow cytometry measures light scatter and fluorescence of single cells or particles in a stream.

The mark [7] stands for this setting: 1 mM ATP with preincubation, mean of duplicated assays.

The source of these data is patent US20200055848A1, “FURANONE DERIVATES AND METHODS OF USE THEREOF” (CARNA BIOSCIENCES, INC., priority 2016, published 2020).

Like-named read-outs stand apart in the source and are kept apart here.

In general, IC50 refers to the concentration needed to halve the response being measured. Take `CCOC(=O)C1=C(Nc2ccccc2Cl)OC(=Cc2c[nH]c3ncccc23)C1=O` [Compound 13, Ethyl 5-((1H-pyrrolo[2,3-b]pyridin-3-yl)methylene)-2-((2-chlorophenyl)amino)-4-oxo-4,5-dihydrofuran-3-carboxylate]: the IC50 in experiment [1] (setting [7]) was determined as 399 nM; in experiment [2], 1200 nM; in experiment [3] (5 μM ATP, mean of duplicated assays, read-out: Cdc7 IC50) it was 2.4 nM; in experiment [3] (in the presence of 1 mM ATP, without pre-incubation, read-out: Cdc7 IC50) it was 191 nM; in experiment [3] (kinase selectivity table, 1 mM ATP with preincubation, mean of duplicated assays, read-out: IC50 (nM), Cdc7), 0.6 nM; in experiment [5] (setting [7]), 37 nM. In addition, in experiment [1] (IC50 versus Cdc7), the “Fold selectivity, p70S6K” value came out at 665 fold. The “pre-incubation effect on Cdc7 inhibition” value in experiment [3] (30 min pre-incubation with Cdc7, various ATP concentrations up to 1 mM) was “inhibitory potencies were sustained even in the presence of 1 mM ATP”. Further, in experiment [3] (IC50 for each kinase versus Cdc7), the “Fold selectivity, Cdc7” value is reported as 1.0 fold. In addition, the “ATP competition assay: effect of ATP concentration on inhibitory potency” value in experiment [3] (various ATP concentrations, without pre-incubation) is on record as “ATP-dependent proportional decreases in inhibitory potencies”. Besides, in experiment [4], the “selectivity in favor of Cdc7 over CLKs” value came to 8 fold. Besides, the “share of the kinase panel inhibited” value in experiment [4] (>50% inhibition at 0.1 μM, 121 kinases) was 7%. Further, in experiment [5] (IC50 versus Cdc7), the “Fold selectivity, GSK3α” value turned out to be 61 fold. Also, in experiment [6], the G1 phase peak result is “Marked decreases”. The sub-G1 population entry in experiment [6] is recorded as “significant increase”.
